Source: patent US7576087B2, “Heterocyclyl-3-sulfonylazaindole or -azaindazole derivatives as 5-hydroxytryptamine-6 ligands” (Wyeth, priority 2003, dated 2009)
Where a name gives a salt, the structure may show the parent alone.

Target: human cloned 5-HT6 receptors (Homo sapiens, UniProt P50406)
Sequence (P50406 whole entry): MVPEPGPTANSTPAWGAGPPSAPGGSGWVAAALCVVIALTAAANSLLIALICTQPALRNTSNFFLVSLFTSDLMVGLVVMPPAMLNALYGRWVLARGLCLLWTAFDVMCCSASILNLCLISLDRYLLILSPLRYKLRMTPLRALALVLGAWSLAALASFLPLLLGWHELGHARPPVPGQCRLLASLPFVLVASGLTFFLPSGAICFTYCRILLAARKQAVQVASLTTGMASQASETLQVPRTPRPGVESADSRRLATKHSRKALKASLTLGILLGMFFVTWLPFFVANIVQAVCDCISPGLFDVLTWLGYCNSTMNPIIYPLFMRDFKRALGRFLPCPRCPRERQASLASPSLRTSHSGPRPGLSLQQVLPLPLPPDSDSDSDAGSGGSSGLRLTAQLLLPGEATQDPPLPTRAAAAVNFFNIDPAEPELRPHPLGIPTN

SMILES	Ki [nM]
CN1CCN(c2ccc3[nH]nc(S(=O)(=O)c4ccccc4)c3n2)CC1 [Example 4, 5-(4-methylpiperazin-1-yl)-3-(phenylsulfonyl)-1H-pyrazolo-[4,3-b]pyridine hydrochloride]	34
O=S(=O)(c1ccccc1)c1c[nH]c2ccc(N3CCN(Cc4ccccc4)CC3)nc12 [Example 8, 5-(4-Benzylpiperazin-1-yl)-3-(phenylsulfonyl)-1H-pyrrolo[3,2-b]pyridine]	30
O=S(=O)(c1ccccc1)c1c[nH]c2ccc(N3CCNCC3)nc12 [Example 9, 3-(Phenylsulfonyl)-5-piperazin-1-yl-1H-pyrrolo[3,2-b]pyridine Dihydrochloride]	2
